# Earlier results in publication PMC12308805, “Ultrahigh-Throughput Virtual Screening Strategies against PPI Targets: A Case Study of STAT Inhibitors” (Journal of Chemical Information and Modeling, 2025).
# Square brackets hold non-standard residues; d marks the D form. Peptide text beside a SMILES is read from it. * marks the point of attachment. pY = N[C@@H](Cc1ccc(OP(=O)(O)O)cc1)C(=O)O; X4 = O=C(/C=C/c1ccc(OP(=O)(O)O)cc1)*; Cbz = O=C(OCc1ccccc1)*
# Test system: STAT3
# Conditions: cited from earlier work
row,Compound,Type (known STAT3 active)
1,CC(C)C[C@H](NC(=O)[C@H](Cc1ccc(OP(=O)(O)O)cc1)NC(=O)OCc1ccccc1)C(=O)N1CCC[C@H]1C(=O)N[C@@H](CCC(N)=O)C(=O)N[C@H](C(N)=O)[C@@H](C)O [CHEMBL435121] (Cbz-[pY]LPQT-NH2),Active
2,CC(C)C[C@H](NC(=O)/C=C/c1ccc(OP(=O)(O)O)cc1)C(=O)N1CCC[C@H]1C(=O)N[C@@H](CCC(N)=O)[C@@H](C)OCc1ccccc1 [CHEMBL583758],Active
3,CC(C)C[C@H](NC(=O)/C=C/c1ccc(OP(=O)(O)O)cc1)C(=O)N1C[C@H]2C[C@H]2[C@H]1C(=O)N[C@H](C)CCC(N)=O [CHEMBL576784],Active

# Same assay, conditions: sheet 6QHD_actives_decoys, retrospective screening set for STAT3 SH2 domain (PDB 6QHD); decoys are presumed inactives, not tested; ref DUD-E; cited from earlier work
row,Compound,Type
1,CCN(CC)c1ccc(NC(=O)CSc2n[nH]c(N/N=C/c3cc(OC)c(O)cc3[N+](=O)[O-])n2)cc1 [Decoy906],Inactive (Decoy)
2,C/C(=C(\CCO)SS/C(CCO)=C(\C)N(C=O)Cc1cnc(C)nc1N)N(C=O)Cc1cnc(C)nc1N [Decoy781],Inactive (Decoy)
3,C[C@@]1(c2cc3ccccc3o2)NC(=O)N(CC(=O)Nc2cccc(S(=O)(=O)N3CCCC3)c2)C1=O [Decoy779],Inactive (Decoy)
4,CCOc1ccc2[nH]c(=O)c(CN(CCc3ccc(OC)c(OC)c3)Cc3nnnn3C3CCCC3)cc2c1 [Decoy799],Inactive (Decoy)
5,O=C(NC(CO[C@H]1[C@H](O)[C@H](O)[C@H](O)O[C@@H]1CO)CO[C@H]1[C@H](O)[C@H](O)[C@@H](O)O[C@@H]1CO)c1ccc(C2(C(F)(F)F)N=N2)cc1 (stereo partly drawn) [Decoy734],Inactive (Decoy)
6,CC(=C\C(=O)O)/C=C(\C)C[C@@H](C)CCCC[C@H](O)[C@@H](CO)C(=O)OC[C@H]1O[C@@H](O)[C@@H](O)[C@@H](O)[C@H]1O [Decoy876],Inactive (Decoy)
7,COc1cc(Cc2ccc(NC(=O)CSc3nc(N)cc(=O)[nH]3)c(OC)c2)ccc1NC(=O)CSc1nc(N)cc(=O)[nH]1 [Decoy750],Inactive (Decoy)
8,O=c1ccn([C@@H]2O[C@H](CO[P@](=O)(O)O[P@@](=O)(O)O[C@H]3OC[C@@H](O)[C@H](O)[C@H]3O)[C@@H](O)[C@H]2O)c(=O)[nH]1 [Decoy865],Inactive (Decoy)
9,CCCCN(CC)S(=O)(=O)c1cc([N+](=O)[O-])ccc1NN/C=C1/C(=O)N=C(O)NC1=O [Decoy950],Inactive (Decoy)
10,CC(C)(CC[C@@H](O)[C@@](C)(O)[C@H]1CC[C@@]2(O)C3=CC(=O)[C@H]4C[C@@H](O)[C@@H](O)C[C@]4(C)[C@@H]3CC[C@]12C)O[C@H]1O[C@@H](CO)[C@@H](O)[C@@H](O)[C@H]1O [Decoy905],Inactive (Decoy)
11,C=C1NC(=O)[C@@H]([C@@H](C)O)NC(=O)[C@@H](C(C)C)NC(=O)[C@@H](C)[C@@H](O)[C@H](C)[C@@H](CCCCCCCCC)OC1=O [Decoy732],Inactive (Decoy)
12,CCOc1ccc(S(=O)(=O)Nc2ccc(C(=O)N/N=C(\C)c3ccc(OC)cc3O)cc2)cc1 [Decoy858],Inactive (Decoy)
13,COc1cc(/C=C/C(=O)OC[C@H]2O[C@H](O[C@]3(CO)O[C@H](CO)[C@@H](O)[C@@H]3O)[C@H](O)[C@@H](O)[C@@H]2O)cc(OC)c1O [Decoy815],Inactive (Decoy)

# Same assay, conditions: sheet 6QHD_actives_decoys; known STAT3 actives of the retrospective screening set; ref ChEMBL / literature; cited from earlier work
row,Compound,Type (known STAT3 active)
1,CC(C)C[C@H](NC(=O)/C=C/c1ccc(OP(=O)(O)O)cc1)C(=O)N1C[C@H]2C[C@H]2[C@H]1C(=O)NCCOCc1ccccc1 [CHEMBL583728],Active
2,CC(C)C[C@H](NC(=O)/C=C/c1ccc(OP(=O)(O)O)cc1)C(=O)N1CCC[C@H]1C(=O)N[C@@H](CCC(N)=O)C(=O)N[C@H](C(N)=O)[C@@H](C)O [CHEMBL470227] (X4-LPQT-NH2),Active

# Same assay, conditions: sheet 6QHD_actives_decoys; retrospective screening set for STAT3 SH2 domain (PDB 6QHD); […]; ref DUD-E; cited from earlier work
row,Compound,Type
1,CC[C@H](C)N1C(=O)NC(=O)/C(=C/Nc2ccc3c(c2)C[C@]2(C(=O)NC(=O)N=C2O)[C@H]2CN(C)CCN32)C1=O [Decoy502],Inactive (Decoy)
2,COc1ccccc1[C@H](O)CNC(=O)c1cc(NS(=O)(=O)c2cccc([N+](=O)[O-])c2)ccc1O [Decoy566],Inactive (Decoy)
3,COc1cc(NS(=O)(=O)c2ccc(NC(=O)CCCCC(=O)Nc3ccc(S(=O)(=O)/N=c4/cc(OC)nc(OC)[nH]4)cc3)cc2)nc(OC)n1 [Decoy429],Inactive (Decoy)

# Same assay, conditions: sheet 6QHD_actives_decoys; retrospective screening set for STAT3 SH2 domain (PDB 6QHD); decoys generated with DUD-E and presumed inactive, not tested; ref DUD-E; cited from earlier work
row,Compound,Type
1,O=C(O)CCCNC(=O)C(NC(=O)CCSSCCNC(=O)CCCC[C@@H]1SC[C@@H]2NC(=O)N[C@@H]21)C(=O)NCCCC(=O)O [Decoy546],Inactive (Decoy)
2,COc1ccc([C@H](C(=O)NCS(=O)(=O)c2ccc(C)cc2)N(Cc2ccco2)C(=O)CCl)cc1 [Decoy337],Inactive (Decoy)
3,Cc1cc(C)n(CCCNC(=O)c2cc(=O)[nH]c3ccc(S(=O)(=O)N4CCOCC4)cc23)n1 [Decoy597],Inactive (Decoy)
4,O=C(CCSc1n[nH]c(N/N=C/c2cccc(Br)c2)n1)Nc1ccccc1[N+](=O)[O-] [Decoy421],Inactive (Decoy)
5,CCOC(=O)C(Sc1nc(N)c(NC(=O)c2ccc(Br)o2)c(=O)[nH]1)C(=O)OCC [Decoy673],Inactive (Decoy)
6,Cc1cc(C)nc(N/C(=N\C(=S)NCCCN2CCOCC2)Nc2ccc(Cn3cncn3)cc2)n1 [Decoy399],Inactive (Decoy)
7,COc1ccc(C(=O)N/C(=C\c2cn(S(=O)(=O)N(C)C)c3ccccc23)C(=O)NCCN2CCOCC2)cc1OC [Decoy375],Inactive (Decoy)
8,Cc1nnc(SCC2=C(C(=O)NCC(C)C)N3C(=O)[C@H](NC(=O)c4nn(C)c(C)c4Br)[C@H]3SC2)s1 [Decoy523],Inactive (Decoy)
9,COc1cc(/C=C/C(=O)O[C@H]2[C@H](O)[C@@H](COC(=O)/C=C/c3ccc(O)cc3)O[C@@]2(CO)O[C@H]2O[C@H](CO)[C@@H](O)[C@H](O)[C@H]2O)ccc1O [Decoy706],Inactive (Decoy)
10,Cc1cc(C)n(Cc2ccc(NC(=S)Nc3ccc(S(=O)(=O)Nc4ncccn4)cc3)cc2)n1 [Decoy696],Inactive (Decoy)
11,COCCN1C(=O)c2cc(C(=O)Nc3ccc(OC)c(OC)c3)ccc2[C@H]1Nc1ccc(OC)c(OC)c1 [Decoy447],Inactive (Decoy)
12,CC(=O)O[C@H]1[C@@H](O)[C@H](CO)O[C@H](O[C@@H](/C=N\C23CC4CC(CC(C4)C2)C3)[C@@H](CO)O[C@H](O)/C=N/C23CC4CC(CC(C4)C2)C3)[C@@H]1O [Decoy407],Inactive (Decoy)
13,Cc1ccc(S(=O)(=O)NCC(=O)N/N=C/c2ccc(OC(=O)c3ccccc3)cc2OC(=O)c2ccccc2)cc1 [Decoy602],Inactive (Decoy)
14,OC[C@@H](O)CN(C[C@H](O)CO)c1ccc(Cc2ccc(N(C[C@H](O)CO)C[C@@H](O)CO)cc2)cc1 [Decoy620],Inactive (Decoy)
15,Nc1ccc(/N=N\c2ccc3cc(S(=O)(=O)O)c(/N=N/c4ccc(/N=N/c5ccc(N)cc5N)c(S(=O)(=O)O)c4)c(O)c3c2)c(N)c1 [Decoy383],Inactive (Decoy)
16,CC(=O)N[C@@H]1[C@H]([C@H](O)[C@H](O)CO)O[C@@](O[C@H]2[C@@H](O)[C@@H](O[C@@H]([C@@H](O[C@@H]3O[C@@H](C)[C@@H](O)[C@H](O)[C@@H]3O)[C@H](O)C=O)[C@H](O)CO)O[C@@H](CO)[C@H]2O)(C(=O)O)C[C@@H]1O [Decoy381],Inactive (Decoy)
17,COc1cc([N+](=O)[O-])cc(/C=N/NC(=O)CSc2nnc(-c3cccc(Br)c3)n2C)c1O [Decoy639],Inactive (Decoy)
18,CCOC(=O)CNS(=O)(=O)c1cc(-c2nnc(Nc3ccc(OCC(=O)NC)cc3)c3ccccc23)ccc1C [Decoy401],Inactive (Decoy)
